The values that follow come from patent US11858956B2, “6-aza-nucleoside prodrugs as antiviral agents for treating virus infections” (Southern Research Institute, priority 2020, dated 2024).

Holding throughout (format): cell-based
One series relates to H1N1 strain. Description: Antiviral activity against Influenza H1N1 strain in MDCK cells. Conditions: Influenza A virus; for log reduction at 20 µM: at 20 μM concentration, 4-6 hours pre-incubation, read-out: H1N1 strain (MDCK cells) VTR (virus titer reduction). As to the method: (§1) The antiviral activity against Influenza viruses (H1N1 and H3N2 strains) evaluated in MDCK cells (4-6 hours pre-incubation with compound) shown in Table 5 below. VTR=Virus titer reduction in log at 20 μM concentration. NT: not tested, ND: not determined.

The next series deals with H3N2 strain. Description: Antiviral activity against Influenza H3N2 strain in MDCK cells. Conditions: Influenza A virus; for log reduction at 20 µM: at 20 μM concentration, 4-6 hours pre-incubation, read-out: H3N2 strain (MDCK cells) VTR (virus titer reduction). Here is the method: as §1
A further series relates to DENV. Description: Antiviral activity against DENV in HEK293 cells. Conditions: Dengue virus; for EC90: HEK293, read-out: DENV (HEK293 cells) EC90; for log reduction at 10 µM: HEK293, read-out: DENV (HEK293 cells) VTR (virus titer reduction).
Series [1] is described as follows: Cytotoxicity (CC50) in HEK293 cells. Conditions: human, WNV. As to the method: (§2) As used herein, “CC50” is intended to refer to the concentration of a substance (e.g., a compound or a drug) that is required for 50% reduction of cell viability. In one aspect, an CC50 can refer to the concentration of a substance that is required for 50% reduction (i.e., cytotoxicity) in vivo, as further defined elsewhere herein.
The antiviral activity against Alpharviruses evaluated in HEK293 cells (4 hours pre-incubation with compound before infected with virus) is shown in Table 2 below. VTR=Virus titer reduction in log at 10 μM concentration. NT: not tested, ND: not determined

For the next series, the system named is CHIKV. Description: Antiviral activity against CHIKV in NHDF cells. Conditions: Chikungunya virus; for EC90: read-out: CHIKV (NHDF cells) EC90; for log reduction at 10 µM: read-out: CHIKV (NHDF cells) VTR (virus titer reduction).
The nature of series [2]: Cytotoxicity (CC50) in NHDF cells. Particulars: human, CHIKV. As to the method:
as §2
VTR=Virus titer reduction in log at 10 μM concentration. NT: not tested, ND: not determined.

Series [3] in a line: Cytotoxicity (CC50) in MDCK cells. Particulars: dog, H1N1. As to the method: as §2, §1
The next series deals with ZIKA. Description: Antiviral activity against ZIKA in HEK 293 cells. Particulars: Zika virus; for EC90: HEK293, read-out: ZIKA (HEK 293 cells) EC90.
Another series relates to VEEV. Description: microbe, parasite or virus in culture. Conditions: Venezuelan equine encephalitis virus, NHDF; for EC90: read-out: VEEV (NHDF cells) EC90; for log reduction at 10 µM: read-out: VEEV (NHDF cells) VTR (virus titer reduction).
Another series has as its system WNV. Description: Antiviral activity against WNV in HEK293 cells. Particulars: West Nile virus; for EC90: HEK293, read-out: WNV (HEK293 cells) EC90.
Setting [4] is: 4-6 hours pre-incubation with compound.

Each structure is given as a SMILES string.

Usually EC90 stands for the concentration needed for an effect of 90%. For orientation: CC50 means the concentration at which the toxic effect on the cells reaches its halfway point. With `CC[C@H](C)[C@@H](N)C(=O)OC[C@H]1O[C@@H](n2ncc(=O)[nH]c2=O)C(O)C1O` (stereo partly drawn) [Compound 13, ((2r,3s,4r,5r)-5-(3,5-dioxo-4,5-dihydro-1,2,4-triazin-2(3)-yl)-3,4-dihydroxytetrahydrofuran-2-yl)methyl D-alloisoleucinate], the log reduction at 20 µM with H1N1 strain turned out to be 3.6; in the series with H3N2 strain, 2.8. Also, the EC90 in the series with DENV was 0.5 µM; in the series on CHIKV, 0.51 µM. In addition, the log reduction at 10 µM stood at 4 in the series on DENV and 4.3 in the series with CHIKV. Moreover, the 50% cytotoxic concentration (CC50) in series [1] was 6.7 µM; in series [2], more than 40 µM.
Regarding `CC(C)OC(=O)[C@H](C)NP(=O)(OC[C@H]1O[C@@H](n2ncc(=O)[nH]c2=O)[C@H](O)[C@@H]1O)Oc1ccccc1` (mixture of isomers) [Compound 5, isopropyl ((((2R,3S,4R,5R)-5-(3,5-dioxo-4,5-dihydro-1,2,4-triazin-2(3H)-yl)-3,4-dihydroxytetrahydrofuran-2-yl)methoxy)(phenoxy)phosphoryl)-L-alaninate], the CC50 is more than 100 µM in series [3] and more than 40 µM in series [2]. Moreover, the log reduction at 20 µM was 0.2 in the series on H1N1 strain and -0.1 in the series on H3N2 strain. Besides, the EC90 in the series with DENV is more than 30 µM; in the series on ZIKA, more than 30 µM; with VEEV, more than 10 µM; in the series on WNV, more than 30 µM; in the series with CHIKV, more than 10 µM. Further, the log reduction at 10 µM in the series with VEEV came out at 0; in the series with CHIKV, 0.15.
As to `N[C@@H](Cc1ccccc1)C(=O)OC[C@H]1O[C@@H](n2ncc(=O)[nH]c2=O)[C@H](O)[C@@H]1O` [Compound 11, ((2r,3s,4r,5r)-5-(3,5-dioxo-4,5-dihydro-1,2,4-triazin-2(3H)-yl)-3,4-dihydroxytetrahydrofuran-2-yl)methyl L-phenylalaninate], the results for the CC50 in series [3] and in series [2] were more than 20 µM and more than 40 µM, respectively. Besides, the EC90 in the series with H1N1 strain (setting [4]) is 0.14 µM; in the series with H3N2 strain (setting [4]), 0.78 µM; in the series with DENV, more than 30 µM; in the series on ZIKA it was more than 30 µM; in the series on WNV it was more than 30 µM; in the series on CHIKV, more than 10 µM. For the same molecule, the log reduction at 20 µM in the series with H1N1 strain and with H3N2 strain was 3.4 throughout. The log reduction at 10 µM in the series with CHIKV was 0.05.
On to `CCC(CC)COC(=O)[C@H](C)NP(=O)(OC[C@H]1O[C@@H](n2ncc(=O)[nH]c2=O)[C@H](O)[C@@H]1O)Oc1ccccc1` (mixture of isomers) [Compound 3, 2-ethylbutyl ((((2R,3S,4R,5R)-5-(3,5-dioxo-4,5-dihydro-1,2,4-triazin-2(3H)-yl)-3,4-dihydroxytetrahydrofuran-2-yl)methoxy)(phenoxy)phosphoryl)-L-alaninate], for which the EC90 in the series with DENV was 2.5 µM; in the series on ZIKA, 3.3 µM; in the series on VEEV, more than 10 µM; in the series on WNV, 2.9 µM; with CHIKV, more than 10 µM. Besides, the log reduction at 10 µM in the series on DENV is 3.5; with ZIKA (HEK293, read-out: ZIKA (HEK 293 cells) VTR (virus titer reduction)) it was 2.4; with VEEV it was 0; with WNV (HEK293, read-out: WNV (HEK293 cells) VTR (virus titer reduction)) it was 3.2; in the series on CHIKV, 0. In addition, the 50% cytotoxic concentration (CC50) in series [1] and in series [2] was more than 40 µM throughout.
As to `CC[C@H](C)[C@H](N)C(=O)OC[C@H]1O[C@@H](n2ncc(N)nc2=O)[C@H](O)[C@@H]1O` [Compound 25, ((2r,3s,4r,5r)-5-(5-amino-3-oxo-1,2,4-triazin-2(3H)-yl)-3,4-dihydroxytetrahydrofuran-2-yl)methyl L-isoleucinate], the results for the EC90 with DENV, in the series on VEEV and in the series on CHIKV were 5.1 µM, 1.5 µM and 0.85 µM, respectively. Also, the results for the log reduction at 10 µM in the series on DENV, in the series on VEEV and with CHIKV were 2, 2.17 and 2.58, respectively. The CC50 in [1] and in [2] was more than 40 µM in each case.
